The experiment concerns the target T1, SARS-CoV-2 Spike A (wild-type) (Severe acute respiratory syndrome coronavirus 2, UniProt P0DTC2).
T1 construct: purchased Meso Scale Diagnostics, LLC V-PLEX SARS-CoV-2 Panel 13 (ACE2) Kit / Panel 23 (ACE2) Kit
Briefly: MSD ACE2 competition assay (inhibition of Spike binding with ACE2, ECL), A (wild-type).

[1] abbreviates: IC50 Wild Type, Wild Type Spike.

Where two headings read alike, the source gives them in different places. Positions of bridges follow the written chain, without caps; N, C: chain ends. Non-standard residues stand in square brackets, D forms with d. Residues, ends and D or L forms follow the SMILES beside them. No end group written: not given here. Tic = O=C(O)[C@@H]1Cc2ccccc2CN1; Aib = CC(C)(N)C(=O)O

As usually defined, the IC50 is the midpoint of a concentration-inhibition curve. As to `CC[C@H](C)[C@H](NC(=O)[C@H](CC(C)C)NC(=O)[C@H](CC(=O)O)NC(=O)[C@H](CO)NC(=O)[C@@H](NC(=O)[C@H](CCCNC(=N)N)NC(=O)[C@H](CCSC)NC(=O)[C@@H]1CSSC[C@H](NC(=O)[C@H](CC(C)C)NC(=O)[C@H](CCCNC(=N)N)NC(=O)[C@H](CCSC)NC(=O)[C@@H](NC(=O)[C@H](CCC(=O)O)NC(=O)[C@H](Cc2ccc(O)cc2)NC(=O)[C@@H](NC(=O)[C@H](CCCCN)NC(=O)[C@H](CCC(N)=O)NC(=O)[C@H](CC(C)C)NC(=O)[C@@H](NC(=O)[C@H](Cc2c[nH]c3ccccc23)NC(=O)[C@H](CCC(=O)O)NC(=O)[C@H](CCCCN)NC(=O)[C@H](CC(=O)O)NC(C)=O)[C@@H](C)CC)[C@@H](C)CC)[C@@H](C)CC)C(=O)N[C@@H](CC(=O)O)C(=O)N[C@@H](CCC(=O)O)C(=O)N[C@@H](CC(C)C)C(=O)NCC(=O)N[C@@H](Cc2c[nH]cn2)C(=O)N[C@@H](C)C(=O)N[C@@H](CCC(=O)O)C(=O)N[C@@H](C)C(=O)N1)C(C)C)C(=O)N[C@@H](Cc1ccc(O)cc1)C(=O)N[C@@H](CCC(=O)O)C(=O)N[C@@H](Cc1ccccc1)C(=O)N[C@@H](CCSC)C(=O)N[C@@H](CCCCN)C(=O)N[C@@H](CCCCN)C(=O)NCC(N)=O` [Compound 175] (Ac-DKEWILQKIYEIMRLCDELGHAEACMRVSDLIYEFMKKG-NH2; disulfide 16-25), the IC50 (read-out: IC50, Wild Type, Wild Type) worked out at 7.68 nM.
Under setting [1], “{CH2CO}-ASYHLGELVW[Tic][Aib]C[dE]ILQKIYEIMRLLDELGHAEASMRVSDLIYEFMKK (thioether N-13) [Compound 131]” gave an IC50 of 31.5 nM.
Compound `CC[C@H](C)[C@H](NC(=O)[C@H](CCCCN)NC(=O)[C@H](CCC(N)=O)NC(C)=O)C(=O)N[C@@H](Cc1ccc(O)cc1)C(=O)N[C@@H](CCC(=O)O)C(=O)N[C@H](C(=O)N[C@@H](CCSC)C(=O)N[C@@H](CCCNC(=N)N)C(=O)N[C@@H](CC(C)C)C(=O)N[C@H]1CSSC[C@@H](C(=O)N[C@@H](CCSC)C(=O)N[C@@H](CCCNC(=N)N)C(=O)N[C@H](C(=O)N[C@@H](CO)C(=O)N[C@@H](CC(=O)O)C(=O)N[C@@H](CC(C)C)C(=O)N[C@H](C(=O)N[C@@H](Cc2ccc(O)cc2)C(=O)N[C@@H](CCC(=O)O)C(=O)N[C@@H](Cc2ccccc2)C(=O)N[C@@H](CCSC)C(=O)N[C@@H](CCCCN)C(=O)N[C@@H](CCCCN)C(=O)NCC(N)=O)[C@@H](C)CC)C(C)C)NC(=O)[C@H](C)NC(=O)[C@H](CCC(=O)O)NC(=O)[C@H](C)NC(=O)[C@H](Cc2c[nH]cn2)NC(=O)CNC(=O)[C@H](CC(C)C)NC(=O)[C@H](CCC(=O)O)NC(=O)[C@H](CC(=O)O)NC1=O)[C@@H](C)CC` [Compound 178] (Ac-QKIYEIMRLCDELGHAEACMRVSDLIYEFMKKG-NH2; disulfide 10-19) showed a concentration for half-maximal inhibition (IC50) under setting [1] greater than 10000 nM.

The values are drawn from US20260306644A1, “ANTIBODY RECRUITING MOLECULES FOR THE TREATMENT OF CORONAVIRUS DISEASE-19” (priority 2023, published 2026).
